Assays:
[1] = target: T1, human diamine oxidase (Homo sapiens, UniProt P19801); test: inhibition of human diamine oxidase; format: biochemical
T1 sequence (P19801 20-751): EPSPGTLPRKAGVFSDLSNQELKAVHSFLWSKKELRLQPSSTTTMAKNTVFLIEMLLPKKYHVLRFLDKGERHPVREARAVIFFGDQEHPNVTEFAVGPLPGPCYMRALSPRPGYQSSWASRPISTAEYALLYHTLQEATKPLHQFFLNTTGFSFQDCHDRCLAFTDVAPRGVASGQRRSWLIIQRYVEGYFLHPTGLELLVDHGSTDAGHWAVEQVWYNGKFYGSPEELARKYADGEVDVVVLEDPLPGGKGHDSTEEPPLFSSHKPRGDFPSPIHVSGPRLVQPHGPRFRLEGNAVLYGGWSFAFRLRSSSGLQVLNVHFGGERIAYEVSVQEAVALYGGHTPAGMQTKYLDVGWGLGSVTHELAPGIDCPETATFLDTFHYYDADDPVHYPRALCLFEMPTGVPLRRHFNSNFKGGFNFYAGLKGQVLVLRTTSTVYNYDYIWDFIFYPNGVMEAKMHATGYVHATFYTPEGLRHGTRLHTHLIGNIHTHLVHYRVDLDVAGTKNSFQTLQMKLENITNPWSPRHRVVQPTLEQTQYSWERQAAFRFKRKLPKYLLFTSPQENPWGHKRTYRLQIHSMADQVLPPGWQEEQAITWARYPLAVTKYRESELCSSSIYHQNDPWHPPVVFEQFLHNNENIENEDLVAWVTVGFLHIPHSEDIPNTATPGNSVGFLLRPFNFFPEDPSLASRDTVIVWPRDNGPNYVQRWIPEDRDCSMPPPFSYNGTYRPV

[2] = tested on: SGLT2 versus SGLT1; conditions: cited from earlier work
[3] = patients with type 2 diabetes mellitus at high risk for cardiovascular events; cited from earlier work
[4] = metformin on its own, in the diabetic; cited from earlier work

SMILES: CC(C)(C)NC(=O)c1ccc(OC/C(=C/F)CN)cc1 [Compound 23, (E)-4-(2-(Aminomethyl)-3-fluoroallyloxy)-N-tert-butylbenzamide]
- inhibitory activity against human diamine oxidase [1]: low inhibitory activity

SMILES: OC[C@H]1O[C@@H](c2ccc(Cl)c(Cc3ccc(O[C@H]4CCOC4)cc3)c2)[C@H](O)[C@@H](O)[C@@H]1O [empagliflozin]
- selectivity SGLT2 versus SGLT1 [2]: high selectivity
- rates of the primary composite cardiovascular outcome and of death from any cause [3]: significantly lower rates

SMILES: CN(C)C(=N)N=C(N)N [metformin]
- average improvement in the HbA1c value [4]: 1.0-1.5%

— patent US20210212968A1, “COMBINATIONS COMPRISING AN SSAO/VAP-1 INHIBITOR AND A SGLT2 INHIBITOR, USES THEREOF” (Boehringer Ingelheim International GmbH, priority 2016, published 2021)
